Laboratory results from patent US20220031853A1, “HSP90-TARGETING CONJUGATES AND FORMULATIONS THEREOF” (TARVEDA THERAPEUTICS, INC., priority 2018, published 2022).

How the values were obtained:
[1] = test system: HCT-116 (colon) tumor cells; assay: Tumor cell cytotoxicity assay (CellTiter-Glo), HCT-116; type: cell-based; conditions: Homo sapiens; HCT-116 cells, 72 hrs, CellTiter-Glo ATP levels; read-out: in vitro cytotoxicity IC50
Description: (§1) Tumor cells were plated at 500-5,000 cells per well and incubated for 20-24 hrs at 37 °C at 5% CO2. Post cell incubation, compounds were reconstituted in DMSO to a stock concentration of 200 uM. A compound plate was then prepared containing a 10 point dilution in RPMI+10% FBS+0.25% DMSO. 5 uL of the dilution was then added for a final working concentration range of 10 uM to 0.0005 uM. Compounds and cells were then incubated for up to 72 hrs. Cells were then analyzed by CellTiter-Glo for ATP levels and percent inhibition calculated.
as §1, with “BT474 (breast), LS174T (colon), or HCT-116 (colon) tumor” for “Tumor”, “2500” for “500-5,000”, “for” for “for up to”

[2] = test system: BT474 (breast) tumor cells; assay: Tumor cell cytotoxicity assay (CellTiter-Glo), BT474; type: cell-based; conditions: Homo sapiens, BT-474, 72 hrs, CellTiter-Glo ATP levels, read-out: in vitro cytotoxicity IC50
Description: as §1
as §1, with “BT474 (breast), LS174T (colon), or HCT-116 (colon) tumor” for “Tumor”, “2500” for “500-5,000”, “for” for “for up to”

[3] = test system: LS174T (colon) tumor cells; assay: Tumor cell cytotoxicity assay (CellTiter-Glo), LS174T; type: cell-based; conditions: Homo sapiens, 72 hrs, CellTiter-Glo ATP levels, read-out: in vitro cytotoxicity IC50
Description: as §1
as §1, with “BT474 (breast), LS174T (colon), or HCT-116 (colon) tumor” for “Tumor”, “2500” for “500-5,000”, “for” for “for up to”

[4] = test system: NCI-H460 cells (non-small cell lung cancer); assay: Tumor cell cytotoxicity assay (CellTiter-Glo), NCI-H460; type: cell-based; conditions: Homo sapiens, 48 hrs, CellTiter-Glo ATP levels, read-out: in vitro cytotoxicity IC50
Description: as §1
NCI-H460 cells (non-small cell lung cancer) were plated at 500 cells per well and incubated for 20-24 hrs at 37° C. at 5% CO2. Post cell incubation, compounds were reconstituted in DMSO to a stock concentration of 200 uM. A compound plate was then prepared containing a 10 point dilution in RPMI+10% FBS+0.25% DMSO. 5 uL of the dilution was then added for a final working concentration range of 10 uM to 0.0005 uM. Compounds and cells were then incubated for 48 hrs. Cells were then analyzed by CellTiter-Glo for ATP levels and percent inhibition calculated.

[5] = target: T1, purified recombinant HSP90a (Homo sapiens, UniProt P07900); assay: HSP90a Assay Kit, fluorescence polarization competition with fluorescently labeled geldanamycin; conditions: read-out: HSP90 Binding Kd
T1 construct: purchased
Description: The bindings of the conjugates to HSP90 were studied with the HSP90a Assay Kit. The HSP90a Assay Kit is designed for identification of HSP90a inhibitors using fluorescence polarization. The assay is based on the competition of fluorescently labeled geldanamycin for binding to purified recombinant HSP90a. The key to the HSP90a Assay Kit is the fluorescently labeled geldanamycin. The fluorescently labeled geldanamycin is incubated with a sample containing HSP90a enzyme to produce a change in fluorescent polarization that can then be measured using a fluorescence reader.

Compound	IC50 [1]	IC50 [2]	IC50 [3]	IC50 [4]	Kd [5]
CCNC(=O)c1nnc(-c2cc(C(C)C)c(O)cc2O)n1-c1ccc(CN2CCN(C(=O)Cc3ccc(OC(=O)N(CC)C4CCN(C(=O)c5ccc(NC(=O)Nc6ccc(-c7nc(N8CCOCC8)nc(N8CCOCC8)n7)cc6)cc5)CC4)cc3)CC2)cc1 [Compound 18]	246 nM	1640 nM	3370 nM	389 nM	–
CCNC(=O)c1nnc(-c2cc(C(C)C)c(O)cc2O)n1-c1ccc(CN2CCN(C(=O)Cc3ccc(OC(=O)N4CCN(c5ccc(-n6c(=O)n(C)c7cnc8ccc(-c9ccc(OC)nc9)cc8c76)cc5C(F)(F)F)CC4)cc3)CC2)cc1 [Compound 22]	–	–	–	–	0.79 nM
CCNC(=O)c1nnc(-c2cc(C(C)C)c(O)cc2O)n1-c1ccc(CN2CCN(C(=O)[C@H](N)Cc3ccc(OC(=O)N4CCN(c5ccc(-n6c(=O)n(C)c7cnc8ccc(-c9ccc(OC)nc9)cc8c76)cc5C(F)(F)F)CC4)cc3)CC2)cc1 [Compound 26]	–	–	–	–	1.22 nM
